Measured values: patent publication US8895505B2, “Method of treatment of type 2 diabetes” (AdiStem Ltd., priority 2009, dated 2014)
No end group written: not given here.

Experiments:
[1] = tested on: type 2 diabetic patients; test: TB4-7 trial: randomized, double-blind, placebo-controlled 2-month trial in type 2 diabetic patients; assay type: in vivo, human; conditions: 10 mg s.c. twice a week for 2 months
Protocol: The inventors have performed a single-center, randomized, double-blind, placebo-controlled 2-month trial of twice a week s.c. injection of 10 mg of TB4-7 (a peptide having the amino acid sequence LKKTETQ (SEQ ID NO:1)) in type 2 diabetic patients inadequately treated with diet/lifestyle or stable doses of common hypoglycemics for at least 3 months. The results from an interim 2 month report of that trial is provided in this example.
Patients with type 2 diabetes for >/=1 year were entered into 2 strata of hemoglobin A(1c) (HbA(1c)) levels: Stratum 1: 8.0% to 9.9%; and Stratum 2: 10.0% to 12.0%.
All subjects began a 1-month single-blind placebo run-in phase, followed by randomization in a 2:1 ratio of active treatment: placebo, to 2 months of double-blind treatment with either TB4-7 or saline placebo. Concurrent oral agents were continued unchanged throughout the study.
The primary outcome was the change in HbA(1c) from randomization; results of each stratum were analyzed independently. […] 14 subjects entered stratum 1 and 12 entered stratum 2.

[2] = tested on: dogs with canine DM; test: Dog diabetes mellitus trials; assay type: in vivo; conditions: 10 mg once a week
Protocol: A total of 48 dogs took part in the trials. Dogs where put into two groups of 24: one group was injected with the full 10 mg Thymosin beta 4 protein (TB4) once a week; and the other group was injected with 10 mg TB4-7 once a week for four weeks.
Diagnosis criteria of DM and the pre-requisites for study inclusion were:
(1) clinical signs consistent with canine DM, such as polydipsia, polyuria, polyphagia, and weight loss; (2) persistent and 24-hour fasting hyperglycemia (>200 mg/dL) for more than 2 days; (3) persistent glycosuria for more than 2 days; and (4) insulin supplementation required to maintain normal glucose levels.
Glycosylated hemoglobin and blood glucose levels where measured at before every injection and seven days after the last injection.

[3] = Week 0 (before first injection)
[4] = Week 4 (seven days after last injection)

Substance: LKKTETQ [TB4-7, LKKTETQ]
- adverse events [1]: No adverse events
- tolerability [1]: well tolerated

Substance: Thymosin beta 4 (MSDKPDMAEIEKFDKSKLKKTETQEKNPLPSKETIEQEKQAGES; listed as Homo sapiens) [TB4, the full Thymosin beta 4 protein (TB4)]
- Glucose [2, 3]: 298 ± 64 mg/dL
- HbA1c [2, 3]: 7.7 ± 2.2%
- Glucose ([2]; Week 1): 310 ± 78 mg/dL
- HbA1c ([2]; Week 1): 7.8 ± 2.3%
- Glucose ([2]; Week 2): 296 ± 64 mg/dL
- HbA1c ([2]; Week 2): 7.7 ± 2.2%
- Glucose ([2]; Week 3): 275 ± 72 mg/dL
- HbA1c ([2]; Week 3): 7.2 ± 2.6%
- Glucose [2, 4]: 213 ± 82 mg/dL
- HbA1c [2, 4]: 6.1 ± 2.9%
